Source: US5861475A, “Compositions and methods for the inhibition of phagocytes” (Research Corporation Technologies, Inc., priority 1996, dated 1999)
Where no end group is shown, it is not given here.

What was measured:
PMN [1] = experiment: PMN cytosolic calcium concentration (Indo-loaded PMN); type: cell-based, human
[2] = system: polymorphonuclear neutrophils (PMN); type: cell-based; conditions: 10 nM human recombinant C5a; cells concomitantly exposed to peptide and agonist; read-out: IC50 for C5a-induced chemotaxis
Experimental: Whole blood was obtained from a normal human volunteer population and PMN were isolated by ficoll-hypaque gradient centrifugation followed dextran sedimentation, as described by Cooper et al., (1991).
The degree of inhibition of PMN chemotaxis by natural purified inhibitor or synthetic peptides was determined as described by Cooper et al. (1991) using 100 nM formyl-methionyl-leucyl-phenylalanine (fMLP), 10 nM human recombinant C5a or 10 nM leukotriene B4 and multiwell chemotaxis chambers (Neuroprobe Inc., Bethesda, Md.) employing nitrocellulose membranes. Isoelectric focused fractions or HPLC elution fractions were diluted 1:1000 in a final concentration of the above agonists. Controls included buffer alone or C5a diluted in buffer alone.
22 μl of samples were placed in bottom wells of the chemotaxis chamber, a nitrocellulose membrane with 3 μm pores was overlaid as was a rubber gasket. […] Chemotaxis was assessed by comparing the maximal distance migrated to agonist alone or in the presence of an irrelevant peptide (μm minus migration to buffer alone) and comparing to the distance migrated to agonist plus elution fractions or synthetic peptides. The percentage of total cells migrating 10 μm increments from 0 to 120 μm was also determined by image analysis (Olympus Instruments) and treatment groups were compared to controls. […]

PMN [3] = experiment: PMN viability by LDH release
Experimental: PMN viability after exposure to NIP (seq id no:1) or control peptide for varying amounts of time was assessed by measuring LDH release using a commercially available kit (Sigma).

Q: For COc1cc(N(CC(=O)OCOC(C)=O)CC(=O)OCOC(C)=O)c2nc(COc3cc(C)ccc3N(CC(=O)OCOC(C)=O)CC(=O)OCOC(C)=O)ccc2c1 [Quin 2 AM], which “buffering of rises in cytosolic calcium concentrations” value (PMN [1]; 10 μM, after 1 μM fMLP stimulation) is on record?
A: The value was “significantly buffered”.

Q: Which IC50 [2] does the source give for “EGSYFFGDNA [NIP-Arg, Glu-Gly-Ser-Tyr-Phe-Phe-Gly-Asp-Asn-Ala]” here?
A: The IC50 was 6 µM.

Q: What does the source list for “REGSYFFGDNA [NIP, Arg-Glu-Gly-Ser-Tyr-Phe-Phe-Gly-Asp-Asn-Ala]”?
A: IC50 [2]: 2 µM; [LDH] of supernatant (PMN [3]; 5 μM, 5 min exposure): 37.2 ± 6.3; [LDH] of supernatant (PMN [3]; 5 μM, 15 min exposure): 40.8 ± 3.7; [LDH] of supernatant (PMN [3]; 5 μM, 30 min exposure): 30.2 ± 4.25; [LDH] of supernatant (PMN [3]; 5 μM, 60 min exposure): 35 ± 5.5; cellular viability as determined by LDH release (PMN [3]; concentrations that inhibited chemotaxis and oxidant production): did not significantly alter

Q: Which “[LDH] of supernatant” value (PMN [3]; 5 μM, 60 min exposure) does the source give for “SNRGFAYFDEG [Control peptide, Ser-Asn-Arg-Gly-Phe-Ala-Tyr-Phe-Asp-Glu-Gly, reference compound]” here?
A: Its value is 39.2 ± 6.5.

Q: How did the “[LDH] of supernatant” value (PMN [3]; 0.1%, 5 min exposure) turn out when Triton [reference compound] was run?
A: The value was 252 ± 6.5.

Q: Which “ionomycin-induced rise in cytosolic calcium” value (PMN [1]; pertussis toxin pretreatment) does the source give for pertussis toxin here?
A: Its value is “no effect”.

Q: What about the “rise in cytosolic calcium concentration induced by 1 μM FMLP” value (PMN [1]; pertussis toxin pretreatment) of the same compound?
A: Its value is “Attenuation”.
